{"source": "patent US20210189342A1", "about": "“COMPOSITIONS AND METHODS FOR MODULATING MONOCYTE AND MACROPHAGE INFLAMMATORY PHENOTYPES AND IMMUNOTHERAPY USES THEREOF” (Verseau Therapeutics, Inc., priority 2018, published 2021)", "assay_type_in_all_cases": "cell-based, human", "key": {"[1]": {"test_system": "peripheral blood mononuclear cells (PBMCs)", "details": "SEB assay, 5 μg/ml, FIG. 5"}, "dissociated tumors": {"test_system": "dissociated tumors", "experiment": "dissociated tumor assay", "details": "10 ug/mL, 24 or 48 hrs, FIG. 8", "source_text": "One system used for this purpose was a dissociated tumor assay. Dissociated tumors contain all the various cell populations present in the tumor microenvironment, including, for example, tumor cells, immune cells, and support cells. These viable single cell suspensions are useful for many applications and allow for the normalization of cell number and composition within each replicate of an experiment. For performing dissociated tumor experiments upon acquisition of fresh tumor tissue (less than 24 hrs), surrounding fat, fibrous areas, and necrotic areas were removed from a tumor sample using scissors and scalpels. The tumor was cut into small pieces of 2-4 mm^3. The Tumor Dissociation Kit enzyme mix (MACS Miltenyi Biotec) was prepared according to the manufacturer's protocol. Tumor pieces and dissociation enzymes were transferred into 5 ml Snaplock Microcentrifuge tubes and the tissue was minced using a pair of straight scissors. Tubes were placed in a 37° C. shaker at 200-250 rpm for 45 minutes to 1 hour. At the end of the incubation time, the digested tumor was filtered through […] cell strainers into 50 mL Falcon™ conical centrifuge tubes. […] At the end of the study, cytokines/chemokines in the culture supernatant were measured using the Invitrogen™ Luminex™ Cytokine Human Magnetic 25-Plex Panel according to the manufacturer's instructions. […]"}, "tumor tissue slices": {"test_system": "tumor tissue slices", "experiment": "tumor tissue slice cultures", "details": "10 ug/mL", "source_text": "A second system was used to further confirm the results of the dissociated tumor assays. Briefly, dissociated tumor assays have the advantage of being able to normalize the number of cells in every condition performed. They also have the potential downside of losing the tumor structure and non-cellular stromal components. […] Upon acquisition of fresh tumor tissue sample (less than 24 hrs), surrounding fat, fibrous, and necrotic areas were removed from the tumor sample as much as possible using scissors and scalpels. The tissue was embedded in the center of a tissue mold using 4% agarose. After solidifying, the agarose block was dislodged, and the mold was glued to a Leica VT1000 S microtome tissue holder and sectioned into 300 to 400 micron sections using the Leica VT1000 S microtome. […] At the end of the study, efficacy was evaluated by analyzing cytokine/chemokine amounts secreted into the culture supernatant measured using the Invitrogen™ Luminex™ Cytokine Human Magnetic 25-Plex Panel according to the manufacturer's instructions. […]"}}}
{"substance": "pembrolizumab", "values": [{"measurement": "T cell activity (IFNg production)", "setting": "[1]; donor 2", "value": "no increase in T cell activity"}, {"measurement": "T cell-specific response as indicated by IFNg production", "setting": "[1]; donor 5", "value": "increase in T cell-specific response"}, {"measurement": "IFNg production", "setting": "dissociated tumors", "value": "stimulating IFNg production"}, {"measurement": "IL-10 production", "setting": "dissociated tumors", "value": "induces immunosuppressive IL-10"}, {"measurement": "cytokine response", "setting": "tumor tissue slices; GI tumor, FIG. 9B", "value": "do not provide a response"}, {"measurement": "cytokine response (IFNg, TNFα)", "setting": "tumor tissue slices; lung tumor, FIG. 9A", "value": "showed a response"}]}
